These results are taken from ChEMBL document CHEMBL1201862, “PubChem BioAssay data set” (2004).

Each structure is given as a SMILES string.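 Following 48 hours of exposure in 96-well plates, responses at five concentrations were used to interpolate endpoints linearly. GI50 is the concentration that inhibits growth by half.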 Activity calls are given as the source filed them. Cut-off read from the data, not from the text of the source: active = GI50 up to about 1.1 µM and inactive = higher. Starred links: 1 amine or outer side, 2 acyl side, 3 side chain; linkers in the order of their positions; H or OH if unused. Non-standard residues stand in square brackets, D forms with d. Residues, ends and D or L forms follow the SMILES beside them. *: point of attachment. X47 = CCC(=O)CC1CC(C)CC(C(=O)[*:2])N1[*:1]; X46 = CCCCCCCCC(C)C(=O)*; Aib = CC(C)(N)C(=O)O; X48 = CC(CN(C)CCO)N* Where only a bound is given, the exact number is not on record here.

Among the test systems are 786-0; A498; CCRF-CEM; COLO 205; HCT-116; HCT-15; HL-60; HT-29; IGROV-1; KM12; LOX IMVI; NCI-H460; NCI-H522; RXF 393; SF-268; SF-295; SK-MEL-2; SK-OV-3; SN12C; UACC-62.
Assay in all cases: inhibition of tumour cell growth, NCI panel, 48 h

For `COC(=O)CNS(=O)(=O)c1ccc(-c2c3nc(c(-c4ccc(S(=O)(=O)NCC(=O)OC)cc4)c4ccc([nH]4)c(-c4ccc(S(=O)(=O)NCC(=O)OC)cc4)c4nc(c(-c5ccc(S(=O)(=O)NCC(=O)OC)cc5)c5ccc2[nH]5)C=C4)C=C3)cc1`, the GI50 with 786-0 is > 100 µM (inactive); in the assay on A498, 64.9 µM (inactive); in the assay with CCRF-CEM, > 100 µM (inactive); in the assay on COLO 205, > 100 µM (inactive); in the assay with HCT-116 it was > 100 µM (inactive); with HCT-15, > 100 µM. For the same compound, the GI50 in the assay with HL-60 was > 100 µM (inactive); in the assay with HT-29 it was > 100 µM (inactive); in the assay on IGROV-1, > 100 µM (inactive); in the assay on KM12 it was 50.7 µM (inactive); in the assay with LOX IMVI, > 100 µM (inactive); in the assay on NCI-H460, > 100 µM (inactive). In addition, the GI50 with NCI-H522, with RXF 393, in the assay on SF-268, in the assay with SF-295, with SK-MEL-2 and with SK-OV-3 was > 100 µM (inactive) throughout. Moreover, the GI50 in the assay with SN12C was > 100 µM (inactive); with UACC-62 it was 62.2 µM (inactive).
On to `COc1ccc(C(SCCO)(c2ccccc2)c2ccc(OC)cc2)cc1`, for which the GI50 was 14.6 µM (inactive) in the assay with 786-0; 13.9 µM (inactive) in the assay on A498; 12.6 µM (inactive) in the assay on CCRF-CEM; 17.9 µM (inactive) in the assay on COLO 205; 8.41 µM (inactive) with HCT-116; 13.5 µM with HCT-15. Further, the GI50 was 21.3 µM (inactive) in the assay with HL-60; 13.9 µM (inactive) in the assay on HT-29; 16.8 µM (inactive) with IGROV-1; 5.38 µM (inactive) with KM12; 16.5 µM (inactive) with LOX IMVI; 4.61 µM (inactive) in the assay on NCI-H460. Also, the GI50 with NCI-H522 was 10.8 µM (inactive); in the assay with RXF 393 it was 8.24 µM (inactive); in the assay with SF-268 it was 10.2 µM (inactive); with SF-295, 4.36 µM (inactive); in the assay with SK-MEL-2, 11.1 µM (inactive); in the assay on SK-OV-3, 10.8 µM (inactive). In addition, the values for the GI50 with SN12C and with UACC-62 were 14.5 µM (inactive) and 11.5 µM (inactive), respectively.
Take `COc1ccc(/C=C/c2cc(O)cc(OC3OC(CO)C(O)C(O)C3O)c2)cc1O` (stereo not given): the GI50 in the assay with 786-0 was > 100 µM (inactive); in the assay on A498, > 100 µM (inactive); in the assay on CCRF-CEM, 82.4 µM (inactive); in the assay with COLO 205, > 100 µM (inactive); in the assay with HCT-116, 68.7 µM (inactive); with HCT-15 it was 6.01 µM. For the same compound, the GI50 is > 100 µM (inactive) in the assay with HL-60; > 100 µM (inactive) in the assay with HT-29; 66.2 µM (inactive) in the assay on IGROV-1; 18.9 µM (inactive) with KM12; > 100 µM (inactive) in the assay on LOX IMVI; > 100 µM (inactive) with NCI-H460. The GI50 was 44 µM (inactive) with NCI-H522; > 100 µM (inactive) in the assay on RXF 393; 42.6 µM (inactive) with SF-268; 51.8 µM (inactive) in the assay on SF-295; > 100 µM (inactive) in the assay with SK-MEL-2; > 100 µM (inactive) with SK-OV-3. The figures for the GI50 in the assay on SN12C and in the assay with UACC-62 were > 100 µM (inactive) and 19.4 µM (inactive), respectively.
As for `COc1ccc(N2C(=O)C(Cl)C2c2cc3cc(Br)ccc3nc2Cl)cc1` (stereo not given), the GI50 with 786-0 was 6.17 µM (inactive); in the assay with A498 it was 16.6 µM (inactive); with CCRF-CEM, 1.86 µM (inactive); in the assay on COLO 205, 4.91 µM (inactive); in the assay on HCT-116, 4.68 µM (inactive); with HCT-15, 4.71 µM. Further, the GI50 with HL-60 was 5.98 µM (inactive); in the assay on HT-29, 4.68 µM (inactive); in the assay with IGROV-1, 5.12 µM (inactive); in the assay with KM12, 10.9 µM (inactive); with LOX IMVI it was 0.838 µM (active); with NCI-H460 it was 5.33 µM (inactive). Besides, the GI50 with NCI-H522 was 3.81 µM (inactive); in the assay with RXF 393 it was 4.09 µM (inactive); in the assay on SF-268, 6.38 µM (inactive); in the assay on SF-295 it was 11.9 µM (inactive); with SK-MEL-2 it was 5.12 µM (inactive); in the assay with SK-OV-3, 16.6 µM (inactive). Also, the GI50 is 5.79 µM (inactive) in the assay with SN12C and 4.37 µM (inactive) with UACC-62.
Turning to `COc1ccc(N2C(=O)[C@@H]3[C@H](C2=O)c2[nH]c4ccccc4c2C2CCC(C(C)(C)C)C[C@@H]23)cc1` (stereo not given in full), the GI50 in the assay with 786-0 was 14.9 µM (inactive); in the assay with A498, 26 µM (inactive); in the assay with CCRF-CEM, 15.3 µM (inactive); in the assay on COLO 205 it was 24 µM (inactive); in the assay with HCT-116, 30.5 µM (inactive); in the assay on HCT-15, > 90.4 µM. The GI50 was > 100 µM (inactive) in the assay with HL-60; 29.2 µM (inactive) in the assay on HT-29; 34.1 µM (inactive) in the assay on IGROV-1; 38.7 µM (inactive) with KM12; 22.8 µM (inactive) in the assay on LOX IMVI; 25.2 µM (inactive) in the assay on NCI-H460. The GI50 is 18.5 µM (inactive) in the assay with NCI-H522; 17.3 µM (inactive) in the assay with RXF 393; 29.9 µM (inactive) with SF-268; 12.3 µM (inactive) in the assay on SF-295; 30.4 µM (inactive) with SK-MEL-2; 18.6 µM (inactive) in the assay on SK-OV-3. Further, the GI50 in the assay with SN12C is 14 µM (inactive); with UACC-62 it was 19.1 µM (inactive).
Regarding `Clc1cc2ns[s+]c2cc1Cl`, the GI50 is > 75.9 µM (inactive) in the assay on 786-0; > 100 µM (inactive) with A498; 33.4 µM (inactive) in the assay with CCRF-CEM; > 88.3 µM (inactive) in the assay on COLO 205; 41 µM (inactive) in the assay on HCT-116; 4.34 µM with HCT-15. Moreover, the GI50 was 19.3 µM (inactive) in the assay with HL-60; 29.3 µM (inactive) with HT-29; 98.6 µM (inactive) in the assay on IGROV-1; 41 µM (inactive) with KM12; 9.48 µM (inactive) in the assay on LOX IMVI; 47.8 µM (inactive) in the assay on NCI-H460. Moreover, the GI50 is 27.6 µM (inactive) in the assay on NCI-H522; > 100 µM (inactive) in the assay on RXF 393; 21.1 µM (inactive) in the assay on SF-268; 47.1 µM (inactive) with SF-295; > 45.1 µM (inactive) in the assay with SK-MEL-2; > 100 µM (inactive) in the assay with SK-OV-3. In addition, the GI50 in the assay on SN12C was 58.9 µM (inactive); in the assay on UACC-62 it was 5.33 µM (inactive).
In the case of `O=C1/C(=C\c2cccc(Oc3ccccc3)c2)SC(c2ccccc2)N1c1cc(Cl)ccc1Cl` (stereo not given), the GI50 in the assay on 786-0 is 27 µM (inactive); in the assay on A498 it was > 100 µM (inactive); with CCRF-CEM, 0.0356 µM (active); with COLO 205, 53.5 µM (inactive); in the assay with HCT-116, 17.2 µM (inactive); in the assay with HCT-15, 35.2 µM. Moreover, the GI50 is 15.1 µM (inactive) in the assay with HL-60; 30.8 µM (inactive) in the assay on HT-29; 26.3 µM (inactive) in the assay with IGROV-1; 18.2 µM (inactive) in the assay with KM12; 16.8 µM (inactive) in the assay on LOX IMVI; 45.4 µM (inactive) with NCI-H460. Further, the GI50 in the assay on NCI-H522 was 21 µM (inactive); in the assay on RXF 393, 22.8 µM (inactive); in the assay on SF-268, 22.2 µM (inactive); with SF-295, 24.2 µM (inactive); in the assay with SK-MEL-2, 43.5 µM (inactive); in the assay on SK-OV-3, > 100 µM (inactive). Further, the GI50 is 18.7 µM (inactive) with SN12C and 31.4 µM (inactive) in the assay on UACC-62.
On to `O=[N+]([O-])c1ccc(C(Cl)C(Cl)c2ccc(C(Cl)C(Cl)c3ccc([N+](=O)[O-])cc3[N+](=O)[O-])cc2)c([N+](=O)[O-])c1` (stereo not given), for which the GI50 is 1.39 µM (inactive) with 786-0; 2.9 µM (inactive) with A498; 0.232 µM (active) in the assay with CCRF-CEM; 1 µM (active) in the assay with COLO 205; 0.931 µM (active) with HCT-116; 1.19 µM with HCT-15. Moreover, the GI50 is 1.93 µM (inactive) with HL-60; 1.76 µM (inactive) in the assay with HT-29; 2.05 µM (inactive) with IGROV-1; 0.264 µM (active) in the assay on KM12; 1.36 µM (inactive) in the assay on LOX IMVI; 0.957 µM (active) in the assay on NCI-H460. The GI50 was 1.14 µM (inactive) in the assay with NCI-H522; 0.964 µM (active) in the assay with RXF 393; 1.89 µM (inactive) with SF-268; 2.31 µM (inactive) with SF-295; 1.42 µM (inactive) with SK-MEL-2; 22.8 µM (inactive) with SK-OV-3. Further, the GI50 in the assay on SN12C was 1.95 µM (inactive); with UACC-62, 1.16 µM (inactive).
For `Cc1ccccc1NC(=O)c1nc(S)nc(N)c1-c1ccccc1C`, the GI50 with 786-0 was > 100 µM (inactive); in the assay with A498, > 100 µM (inactive); in the assay with CCRF-CEM, > 100 µM (inactive); in the assay on COLO 205 it was > 100 µM (inactive); in the assay on HCT-116 it was > 100 µM (inactive); with HCT-15 it was > 100 µM. Moreover, the GI50 in the assay on HL-60, in the assay with HT-29, in the assay with IGROV-1, with KM12, with LOX IMVI and in the assay on NCI-H460 was > 100 µM (inactive) in each case. Moreover, the GI50 with NCI-H522, in the assay on RXF 393, in the assay on SF-268, in the assay on SF-295, in the assay with SK-MEL-2 and with SK-OV-3 was > 100 µM (inactive) in each case. In addition, the GI50 in the assay on SN12C and with UACC-62 was > 100 µM (inactive) in each case.
On to `CCCCCCCCC(C)C(=O)N1CCCC1C(=O)N1C(CC(=O)CC)CC(C)CC1C(=O)NC(C)C(=O)NC(C)(C)C(=O)NC(C)(C)C(=O)NC(C(=O)NC(C)C(=O)NC(C)(C)C(=O)NC(C)(C)C(=O)NC(C)CN(C)CCO)C(C)CC` (stereo not given) (X46-P[X47]A[Aib][Aib]IA[Aib][Aib]-X48; configuration not given here), for which the GI50 with 786-0 was 0.106 µM (active); in the assay on A498, 2 µM (inactive); with CCRF-CEM, < 0.0183 µM (active); with COLO 205, 0.0135 µM (active); in the assay with HCT-116, 0.0299 µM (active); in the assay on HCT-15, 0.406 µM. In addition, the GI50 with HL-60 is < 0.0106 µM (active); with HT-29, 0.0261 µM (active); with IGROV-1, 0.221 µM (active); with KM12 it was 0.142 µM (active); in the assay with LOX IMVI, 0.355 µM (active); in the assay with NCI-H460, 0.0204 µM (active). Further, the GI50 in the assay on NCI-H522 is < 0.01 µM (active); with RXF 393, 1.85 µM (inactive); with SF-268, 0.581 µM (active); with SF-295 it was < 0.01 µM (active); in the assay on SK-MEL-2, 0.369 µM (active); in the assay on SK-OV-3 it was 1.19 µM (inactive). Also, the GI50 with SN12C is 0.115 µM (active); in the assay with UACC-62, 1.89 µM (inactive).
